Results taken from patent US4268664A, “Process for the preparation of 1-N-isoseryl- or 1-N-(L-4-amino-2-hydroxybutyryl)-3',4'-dideoxykanamycin B and intermediates thereof” (Zaidan Hojin Biseibutsu Kagaku Kenkyu Kai, priority 1978, dated 1981).
Converted amounts (≈) assume the structure as drawn. Like-named read-outs stand apart in the source and are kept apart here.

What was measured:
various microorganisms = assay: antimicrobial activity (in words); type: cell-based
Protocol: (§1) The minimum inhibitory concentrations (mcg/ml) of the compounds tested against various microorganisms were determined according to a serial dilution method using nutrient agar medium at 37° C., the estimation being effected after 20 hours-incubation.

Ps. aeruginosa E-2 = assay: Antibacterial activity (MIC), serial dilution method; type: cell-based; conditions: Pseudomonas aeruginosa, E2; nutrient agar, 37° C., 20 hours; read-out: MIC
Sta. aureus Smith S-424 = assay: as above; type: cell-based; conditions: Staphylococcus aureus, SMITHS424; nutrient agar, 37° C., 20 hours
[1] = test system: Sta. aureus Rosenbach FDA 209-P JC-1; assay: as above; type: cell-based; conditions: Staphylococcus aureus, FDA209; nutrient agar, 37° C., 20 hours
Sta. aureus N-0089 = assay: as above; type: cell-based; conditions: Staphylococcus aureus, N0089; nutrient agar, 37° C., 20 hours
[2] = test system: Shigella dysenteriae Shigae; assay: microbe, parasite or virus in culture; type: cell-based; conditions: 20 h
[3] = test system: Kleb. pneumoniae 22# 3038 (A-20680); assay: Antibacterial activity (MIC), serial dilution method; type: cell-based; conditions: Klebsiella pneumoniae
E. coli A-0003 = assay: as above; type: cell-based; conditions: Escherichia coli, A0003; nutrient agar, 37° C., 20 hours
Kleb. pneumoniae = assay: as above; type: cell-based; conditions: Klebsiella pneumoniae
Pro. rettgelli J-0026 = assay: as above; type: cell-based; conditions: nutrient agar, 37° C., 20 hours; read-out: MIC
[4] = test system: E. coli (M) Cast. & Chalm.NIHJ JC-2; assay: as above; type: cell-based; conditions: Escherichia coli, NIHJJC2; nutrient agar, 37° C., 20 hours; read-out: MIC
Ps. aeruginosa NC-5 = assay: as above; type: cell-based; conditions: Pseudomonas aeruginosa, NC5; nutrient agar, 37° C., 20 hours; read-out: MIC
E. coli A-0001 = assay: as above; type: cell-based; conditions: Escherichia coli, A0001; nutrient agar, 37° C., 20 hours
E. coli No. 29 = assay: as above; type: cell-based; conditions: Escherichia coli, nutrient agar, 37° C., 20 hours
[5] = test system: Sal. enteritidis No. 11(T-okai); assay: as above; type: cell-based; conditions: Salmonella enterica, nutrient agar, 37° C., 20 hours, read-out: MIC
Sal. typhi 0-901-W = assay: as above; type: cell-based; conditions: Salmonella enterica, 20 h
Serra. marcescens I-0043 = assay: as above; type: cell-based; conditions: Serratia marcescens
Serra. marcescens No. 2 = assay: as above; type: cell-based; conditions: Serratia marcescens, nutrient agar, 37° C., 20 hours
B. anthracis No. 119 = assay: microbe, parasite or virus in culture; type: cell-based; conditions: Bacillus anthracis, NO.119, 20 h
Str. faecalis ATCC 8043 = assay: Antibacterial activity (MIC), serial dilution method; type: cell-based; conditions: Enterococcus faecalis, ATCC8043; nutrient agar, 37° C., 20 hours
Ps. aeruginosa IAM-1007 = assay: as above; type: cell-based; conditions: Pseudomonas aeruginosa, IAM1007; nutrient agar, 37° C., 20 hours; read-out: MIC
Serra. marcescens No. 1 = assay: as above; type: cell-based; conditions: Serratia marcescens, nutrient agar, 37° C., 20 hours
Ps. aeruginosa M-0148 = assay: as above; type: cell-based; conditions: Pseudomonas aeruginosa
B. subtilis ATCC 6633 = assay: as above; type: cell-based; conditions: Bacillus subtilis, ATCC6633; nutrient agar, 37° C., 20 hours
[6] = test system: E. coli JR 66/W 677(A-20683); assay: as above; type: cell-based; conditions: Escherichia coli; nutrient agar, 37° C., 20 hours; read-out: MIC
Pro. vulgaris OX19 = assay: as above; type: cell-based; conditions: Proteus vulgaris, nutrient agar, 37° C., 20 hours
Sta. epidermidis 109 = assay: as above; type: cell-based; conditions: Staphylococcus epidermidis, nutrient agar, 37° C., 20 hours
Sal. species D-0006 = assay: as above; type: cell-based; conditions: nutrient agar, 37° C., 20 hours
Protocol: (§2) Antimicrobial spectra of 1-N-(L-isoseryl)- and 1-N-(L-4-amino-2-hydroxybutyryl)-3',4'-dideoxy-3',4'-didehydrokanamycin B (1-AHP-eno-DKB and 1-AHB-eno-DKB) are shown in the following table together with that of 1-N-(L-4-amino-2-hydroxybutyryl)-3',4'-dideoxykanamycin B (1-AHB-DKB).
as §1

Sal. species D-0001 = assay: as above; type: cell-based; conditions: nutrient agar, 37° C., 20 hours
Protocol: as §2, §1

E. coli W 677(A-20684) = assay: as above; type: cell-based; conditions: Escherichia coli; nutrient agar, 37° C., 20 hours
Protocol: as §2, §1

Sta. aureus ApO-1 = assay: as above; type: cell-based; conditions: Staphylococcus aureus, APO1; nutrient agar, 37° C., 20 hours
Ps. aeruginosa M-0002 = assay: as above; type: cell-based; conditions: Pseudomonas aeruginosa
Pro. mirabilis J-0010 = assay: as above; type: cell-based; conditions: Proteus mirabilis, J0010; nutrient agar, 37° C., 20 hours; read-out: MIC
[7] = test system: Sta. epidermidis ATCC 14990; assay: as above; type: cell-based; conditions: Staphylococcus epidermidis, ATCC14990; nutrient agar, 37° C., 20 hours
Sta. aureus No. 26 = assay: as above; type: cell-based; conditions: Staphylococcus aureus, nutrient agar, 37° C., 20 hours
[8] = test system: Ps. aeruginosa IID 1210 (IFO 3455); assay: as above; type: cell-based; conditions: Pseudomonas aeruginosa; nutrient agar, 37° C., 20 hours; read-out: MIC
Sal. typhimurium LT-2 = assay: as above; type: cell-based; conditions: Salmonella enterica, nutrient agar, 37° C., 20 hours, read-out: MIC
Ps. aeruginosa M-0032 = assay: as above; type: cell-based; conditions: Pseudomonas aeruginosa, M0032; nutrient agar, 37° C., 20 hours; read-out: MIC
Pro. vulgaris J-0001 = assay: as above; type: cell-based; conditions: Proteus vulgaris, J0001; nutrient agar, 37° C., 20 hours; read-out: MIC
Pro. morganii K-ono = assay: as above; type: cell-based; conditions: Morganella morganii; nutrient agar, 37° C., 20 hours
Sal. species D-0029 = assay: as above; type: cell-based; conditions: nutrient agar, 37° C., 20 hours
Protocol: as §2, §1

[9] = test system: drug-resistant microbial strains including Pseudomonas aeruginosa; conditions: cited from earlier work
[10] = nutrient agar, 37° C., 20 hours, read-out: MIC

NCC1C=CC(N)C(OC2C(N)CC(NC(=O)C(O)CN)C(OC3OC(CO)C(O)C(N)C3O)C2O)O1 (stereo not shown) [1-N-isoseryl-3',4'-dideoxy-3',4'-didehydrokanamycin B]
antimicrobial activity (various microorganisms): high antimicrobial activity

NCCC(O)C(=O)NC1CC(N)C(OC2OC(CN)C=CC2N)C(O)C1OC1OC(CO)C(O)C(N)C1O [1-AHB-eno-DKB, 1-N-(L-4-amino-2-hydroxybutyryl)-3',4'-dideoxy-3',4'-didehydrokanamycin B]
MIC (Ps. aeruginosa E-2): 3.13 µg/mL (≈ 5.68 µM) | MIC (Sta. aureus Smith S-424): 0.2 µg/mL (≈ 0.363 µM) | MIC [1]: 0.1 µg/mL (≈ 0.182 µM) | MIC (Sta. aureus N-0089): 0.2 µg/mL (≈ 0.363 µM) | MIC [2]: 0.78 µg/mL (≈ 1.42 µM) | MIC [3, 10]: 1.56 µg/mL (≈ 2.83 µM) | MIC (E. coli A-0003): 3.13 µg/mL (≈ 5.68 µM) | MIC (Kleb. pneumoniae; [10]): 1.56 µg/mL (≈ 2.83 µM) | MIC (Pro. rettgelli J-0026): 6.25 µg/mL (≈ 11.4 µM) | MIC [4]: 3.13 µg/mL (≈ 5.68 µM) | MIC (Ps. aeruginosa NC-5): 6.25 µg/mL (≈ 11.4 µM) | MIC (E. coli A-0001): 3.13 µg/mL (≈ 5.68 µM) | MIC (E. coli No. 29): 3.13 µg/mL (≈ 5.68 µM) | MIC [5]: 1.56 µg/mL (≈ 2.83 µM) | MIC (Sal. typhi 0-901-W): 0.78 µg/mL (≈ 1.42 µM) | MIC (Serra. marcescens I-0043; I0043, nutrient agar, 37° C., 20 hours, read-out: MIC): 1.56 µg/mL (≈ 2.83 µM) | MIC (Serra. marcescens No. 2): 6.25 µg/mL (≈ 11.4 µM) | MIC (B. anthracis No. 119): 0.1 µg/mL (≈ 0.182 µM) | MIC (Str. faecalis ATCC 8043): 50 µg/mL (≈ 90.8 µM) | MIC (Ps. aeruginosa IAM-1007): 1.56 µg/mL (≈ 2.83 µM) | MIC (Serra. marcescens No. 1): 6.25 µg/mL (≈ 11.4 µM) | MIC (Ps. aeruginosa M-0148; M0148, nutrient agar, 37° C., 20 hours, read-out: MIC): 3.13 µg/mL (≈ 5.68 µM) | MIC (B. subtilis ATCC 6633): 0.2 µg/mL (≈ 0.363 µM) | MIC [6]: 3.13 µg/mL (≈ 5.68 µM) | MIC (Pro. vulgaris OX19): 3.13 µg/mL (≈ 5.68 µM) | MIC (Sta. epidermidis 109): 0.2 µg/mL (≈ 0.363 µM) | MIC (Sal. species D-0006): 1.56 µg/mL (≈ 2.83 µM) | MIC (Sal. species D-0001): 3.13 µg/mL (≈ 5.68 µM) | MIC (E. coli W 677(A-20684)): 0.78 µg/mL (≈ 1.42 µM) | MIC (Sta. aureus ApO-1): 0.39 µg/mL (≈ 0.708 µM) | MIC (Ps. aeruginosa M-0002; M0002, nutrient agar, 37° C., 20 hours, read-out: MIC): 3.13 µg/mL (≈ 5.68 µM) | MIC (Pro. mirabilis J-0010): 1.56 µg/mL (≈ 2.83 µM) | MIC [7]: 0.1 µg/mL (≈ 0.182 µM) | antimicrobial activity (various microorganisms): high antimicrobial activity | MIC (Sta. aureus No. 26): 0.78 µg/mL (≈ 1.42 µM) | MIC [8]: 6.25 µg/mL (≈ 11.4 µM) | MIC (Sal. typhimurium LT-2): 1.56 µg/mL (≈ 2.83 µM) | MIC (Ps. aeruginosa M-0032): 12.5 µg/mL (≈ 22.7 µM) | MIC (Pro. vulgaris J-0001): 1.56 µg/mL (≈ 2.83 µM) | MIC (Pro. morganii K-ono): 1.56 µg/mL (≈ 2.83 µM)

NCC1C=CC(N)C(OC2C(N)CC(NC(=O)C(O)CN)C(OC3OC(CO)C(O)C(N)C3O)C2O)O1 [1-AHP-eno-DKB, 1-N-(L-isoseryl)-3',4'-dideoxy-3',4'-didehydrokanamycin B]
MIC (Ps. aeruginosa E-2): 3.13 µg/mL (≈ 5.83 µM) | MIC (Sta. aureus Smith S-424): 0.39 µg/mL (≈ 0.727 µM) | MIC [1]: 0.1 µg/mL (≈ 0.186 µM) | MIC (Sta. aureus N-0089): 0.39 µg/mL (≈ 0.727 µM) | MIC [2]: 1.56 µg/mL (≈ 2.91 µM) | MIC ([3]; 20 h): 1.56 µg/mL (≈ 2.91 µM) | MIC (E. coli A-0003): 6.25 µg/mL (≈ 11.6 µM) | MIC (Kleb. pneumoniae; 20 h): 1.56 µg/mL (≈ 2.91 µM) | MIC (Pro. rettgelli J-0026): 25 µg/mL (≈ 46.6 µM) | MIC [4]: 3.13 µg/mL (≈ 5.83 µM) | MIC (Ps. aeruginosa NC-5): 3.13 µg/mL (≈ 5.83 µM) | MIC (E. coli A-0001): 6.25 µg/mL (≈ 11.6 µM) | MIC (E. coli No. 29): 6.25 µg/mL (≈ 11.6 µM) | MIC [5]: 3.13 µg/mL (≈ 5.83 µM) | MIC (Sal. typhi 0-901-W): 1.56 µg/mL (≈ 2.91 µM) | MIC (Serra. marcescens I-0043; I0043, 20 h): 1.56 µg/mL (≈ 2.91 µM) | MIC (Serra. marcescens No. 2): 3.13 µg/mL (≈ 5.83 µM) | MIC (B. anthracis No. 119): 0.2 µg/mL (≈ 0.373 µM) | MIC (Str. faecalis ATCC 8043): 50 µg/mL (≈ 93.2 µM) | MIC (Ps. aeruginosa IAM-1007): 0.78 µg/mL (≈ 1.45 µM) | MIC (Serra. marcescens No. 1): 3.13 µg/mL (≈ 5.83 µM) | MIC (Ps. aeruginosa M-0148; M0148, 20 h): 1.56 µg/mL (≈ 2.91 µM) | MIC (B. subtilis ATCC 6633): 0.2 µg/mL (≈ 0.373 µM) | MIC [6]: 3.13 µg/mL (≈ 5.83 µM) | MIC (Pro. vulgaris OX19): 3.13 µg/mL (≈ 5.83 µM) | MIC (Sta. epidermidis 109): 0.2 µg/mL (≈ 0.373 µM) | MIC (Sal. species D-0006): 6.25 µg/mL (≈ 11.6 µM) | MIC (Sal. species D-0029): 6.25 µg/mL (≈ 11.6 µM) | MIC (Sal. species D-0001): 6.25 µg/mL (≈ 11.6 µM) | MIC (E. coli W 677(A-20684)): 0.78 µg/mL (≈ 1.45 µM) | MIC (Sta. aureus ApO-1): 0.78 µg/mL (≈ 1.45 µM) | MIC (Ps. aeruginosa M-0002; M0002, 20 h): 1.56 µg/mL (≈ 2.91 µM) | MIC (Pro. mirabilis J-0010): 3.13 µg/mL (≈ 5.83 µM) | MIC [7]: 0.2 µg/mL (≈ 0.373 µM) | MIC (Sta. aureus No. 26): 0.39 µg/mL (≈ 0.727 µM) | MIC [8]: 3.13 µg/mL (≈ 5.83 µM) | MIC (Sal. typhimurium LT-2): 3.13 µg/mL (≈ 5.83 µM) | MIC (Ps. aeruginosa M-0032): 6.25 µg/mL (≈ 11.6 µM) | MIC (Pro. vulgaris J-0001): 3.13 µg/mL (≈ 5.83 µM) | MIC (Pro. morganii K-ono): 3.13 µg/mL (≈ 5.83 µM)

NCC1CCC(N)C(OC2C(N)CC(NC(=O)C(O)CN)C(OC3OC(CO)C(O)C(N)C3O)C2O)O1 (stereo not shown) [1-N-isoseryl-3',4'-dideoxykanamycin B]
activity against a wide variety of drug-resistant microbial strains [9]: high activity
